One series has as its system Cisd2 hKO-het mice. Description: In vivo NAFLD study in Cisd2 hKO-het mice (histopathology, serum biochemistry). The settings on record: Cisd2 hKO-het male mice, 0.015 wt % in diet for 4 weeks. On the procedure:
Compound 28 of this invention was evaluated for its anti-nonalcoholic fatty liver disease (NAFLD) effect and in vivo toxicity following an assay described below.
Cisd2 floxed allele (Cisd2 f/f) mice were prepared following a procedure described in Wang et al., Hum. Mol. Genet. 23, 4770-85(2014). To obtain Cisd2 heterozygous hepatocyte-specific knockout (Cisd2 hKO-het, Cisd2 f/+; Alb-Cre Tg), Cisd2 f/f mice were bred with Albumin-Cre transgenic (Alb-Cre Tg, JAX003574) mice. After one generation, Cisd2 hKO-het mice were obtained. Male mice were chosen to be used in this study. All mice have a pure or congenic C57BL/6 background and were bred/housed in a specific pathogen-free facility with a 12 h light/12 h dark cycle at a temperature of 20-22° C. Groups of mice at 8 weeks old were provided a diet (AIN93G, TestDiet) containing a vehicle (0.14 wt % of DMF and 0.15 wt % of Cremophor® EL) or compound 28 (0.015 wt %) for 4 weeks.
Histopathology was used to evaluate the efficacy of Compound 28 in ameliorating NAFLD. Liver tissues were collected and fixed with 10% formalin at 4° C. overnight. They were then processed in a tissue processor (STP120, MICROM), followed by embedding in paraffin. H&E of tissue sections (3-4 m) were carried out by a standard protocol. […]

Another series relates to Cisd2 hKO male mice. Description: In vivo fructose-induced NASH model in Cisd2 hKO mice (histopathology, GTT, ITT). The settings on record: 0.015 wt % in diet for 5 months. From the text: Compound 28 was used to alleviate nonalcoholic steatohepatitis (NASH) in Cisd2 hKO male mice described above.
Cisd2 hKO were bred for two generations. […] They were fed 30% (w/v) fructose (Alfa Aesar A17718) in water to establish a fructose-induced NASH model. Groups of mice at 2 months old were provided with a diet (AIN93G, TestDiet) containing a vehicle (0.14 wt % of DMF and 0.15 wt % of Cremophor® EL) or Compound 28 (0.015 wt %) for 5 months. The food and drinking water were provided ad libitum.
Histopathology was used to evaluate the efficacy of Compound 28 in alleviating NASH. Liver tissues were processed and stained as described in Example 53 above.
An oral glucose tolerance test (GTT) and an insulin tolerance test (ITT) were performed to study beneficial effects of Compound 28 in the fructose-induced NASH model. In the oral glucose tolerance test, mice were fasted for 14 hours (7 p.m. to 9 a.m.) and then were orally administrated with glucose water (1.5 mg/g body weight) using a feeding needle. Blood samples were collected from tail vein before (0 min) and after glucose treatment at predetermined time points. Blood glucose levels were measured using OneTouch® Ultra glucose test strips and SureStep® Meter (LifeScan). In the insulin tolerance test, mice were fasted for 2 hours (9 a.m. to 11 a.m.) and then intraperitoneally injected with insulin (0.75 U/kg body weight) (Actrapid® human regular insulin, Novo Nordisk). Blood samples were collected and monitored at predetermined time points.

In the next series the test system is Male C57BL/6 mice. Description: In vivo protection against doxorubicin-induced cardiotoxicity (ECG, echocardiography). The note with it: 1 mg/kg i.p. twice a day for 2 days, doxorubicin 25 mg/kg i.p., ECG day 4, heart echo day 5. Here is the method:
Compound 28 was evaluated for protecting against doxorubicin-induced cardiotoxicity in mice.
Male C57BL/6 mice between 7 and 8 months old were treated with Compound 28 (at a dosage of 1 mg/kg) or a vehicle (1.5 wt % of DMF and 3 wt % of Cremophor® EL in PBS) via intraperitoneal injection (i.p.) twice a day for 2 days. At day 0, 1 hour after the treatment with Compound 28, doxorubicin (25 mg/kg, i.p.) or another vehicle (10% DMSO in normal saline) was injected into mice.
Electrocardiogram (ECG) and heart echo on day 4 and day 5 respectively were used as indications of cardiac function. […]
Functional test of heart using ECG was performed as described in Yeh et al., PLoS Biol. 2019, 17, e3000508. […] Continuous 5-minute ECGs were obtained using subcutaneous electrodes attached at the four limbs and recorded with PowerLab® data acquisition system (model ML866, ADInstruments, Colorado Springs, CO) and Animal Bio Amp® (model ML136, ADInstruments). ECG analysis was performed in an unbiased fashion where 1500 beats were analyzed using LabChart® 7 Pro version 7.3.1 (ADInstruments, Inc). […]
Transthoracic mouse echocardiography was used to provide noninvasive imaging of the heart on a VisualSonics® VeVo® 2100 imaging system (VisualSonics, Toronto, Ontario, Canada). […] Body temperature was maintained and monitored at 36° C. to 37° C. on a heated pad (TC-1000, CWE Inc. USA). ECGs were continuously monitored. […]

Take `O=C(CS(=O)(=O)c1nccs1)N1Cc2ccccc2C1` [Compound 28, 1-(1,3-dihydro-2H-isoindol-2-yl)-2-(1,3-thiazol-2-ylsulfonyl)ethanone]: the “anti-nonalcoholic fatty liver disease (NAFLD) effect” value in the series with Cisd2 hKO-het mice (liver histopathology) is reported as “ameliorated NAFLD in Cisd2 hKO-het mice”. For the same compound, in the series on Cisd2 hKO-het mice (serum ALT, AST, BUN, CRE), the in vivo toxicity entry is “without observed toxicity”. In addition, the “effect on fructose-induced NASH” value with Cisd2 hKO male mice (Cisd2 hKO male mice, 30% fructose in water, liver histopathology) was “ameliorate fructose-induced NASH”. For the same compound, the toxicity entry in the series on Cisd2 hKO male mice (fructose-induced NASH model) was “without obvious toxicity”. Further, the “effect on fructose-induced insulin resistance” value with Cisd2 hKO male mice (insulin tolerance test) is “alleviate fructose-induced glucose intolerance and insulin resistance”. In the series with Cisd2 hKO male mice (oral glucose tolerance test), the “effect on fructose-induced glucose intolerance” value is listed as “alleviate fructose-induced glucose intolerance”. The “protection against doxorubicin-induced cardiotoxicity” value with Male C57BL/6 mice is “protected against doxorubicin-induced cardiotoxicity”.

(Values after patent US11827629B2, “CDGSH iron sulfur domain 2 activators and use thereof” (National Health Research Institutes, priority 2021, dated 2023).)
